Data taken from PubChem BioAssay (NCI).
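Five concentrations, 48 hours, 96-well plates. TGI is the concentration that stops growth completely.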

Columns and labels:
Experiment in all cases: NCI-60 cell line screen, 48 h
HOP-92 NSCLC = tested on: HOP-92 NSCLC
NCI-H460 lung = tested on: NCI-H460 lung
HOP-18 NSCLC = tested on: HOP-18 NSCLC
SK-OV-3 ovarian = tested on: SK-OV-3 ovarian
HT29 colon = tested on: HT29 colon
DLD-1 colon = tested on: DLD-1 colon
HCT-15 colon = tested on: HCT-15 colon
ACHN renal = tested on: ACHN renal
UACC-257 melanoma = tested on: UACC-257 melanoma
U251 CNS = tested on: U251 CNS
CAKI-1 renal = tested on: CAKI-1 renal
MOLT-4 leukemia = tested on: MOLT-4 leukemia
SNB-78 CNS = tested on: SNB-78 CNS
HCC-2998 colon = tested on: HCC-2998 colon
786-0 renal = tested on: 786-0 renal
OVCAR-3 ovarian = tested on: OVCAR-3 ovarian
SK-MEL-5 melanoma = tested on: SK-MEL-5 melanoma
LOX IMVI melanoma = tested on: LOX IMVI melanoma
UO-31 renal = tested on: UO-31 renal
SNB-19 CNS = tested on: SNB-19 CNS
CCRF-CEM leukemia = tested on: CCRF-CEM leukemia
SK-MEL-28 melanoma = tested on: SK-MEL-28 melanoma
KM12 colon = tested on: KM12 colon
RXF 393 renal = tested on: RXF 393 renal
NCI-H23 lung = tested on: NCI-H23 lung
OVCAR-8 ovarian = tested on: OVCAR-8 ovarian
M14 melanoma = tested on: M14 melanoma
SR leukemia = tested on: SR leukemia
SF-539 CNS = tested on: SF-539 CNS
HL-60(TB) leukemia = tested on: HL-60(TB) leukemia
XF 498 CNS = tested on: XF 498 CNS
K-562 leukemia = tested on: K-562 leukemia
DMS 273 small cell lung = tested on: DMS 273 small cell lung
TK-10 renal = tested on: TK-10 renal
RXF-631 renal = tested on: RXF-631 renal
LXFL 529 NSCLC = tested on: LXFL 529 NSCLC
SNB-75 CNS = tested on: SNB-75 CNS
SW-620 colon = tested on: SW-620 colon
SN12C renal = tested on: SN12C renal
EKVX NSCLC = tested on: EKVX NSCLC
SF-268 CNS = tested on: SF-268 CNS
A549 NSCLC = tested on: A549 NSCLC
COLO 205 colon = tested on: COLO 205 colon
NCI-H522 lung = tested on: NCI-H522 lung
HCT-116 colon = tested on: HCT-116 colon
M19-MEL melanoma = tested on: M19-MEL melanoma
OVCAR-4 ovarian = tested on: OVCAR-4 ovarian
SF-295 CNS = tested on: SF-295 CNS
UACC-62 melanoma = tested on: UACC-62 melanoma
KM20L2 colon = tested on: KM20L2 colon
IGROV1 ovarian = tested on: IGROV1 ovarian
HOP-62 NSCLC = tested on: HOP-62 NSCLC
RPMI-8226 leukemia = tested on: RPMI-8226 leukemia
OVCAR-5 ovarian = tested on: OVCAR-5 ovarian
A498 renal = tested on: A498 renal
SK-MEL-2 melanoma = tested on: SK-MEL-2 melanoma
DMS 114 small cell lung = tested on: DMS 114 small cell lung
MALME-3M melanoma = tested on: MALME-3M melanoma
NCI-H226 lung = tested on: NCI-H226 lung

O=c1[nH]cc(OCC(F)(F)F)c(=O)[nH]1
TGI (HOP-92 NSCLC): > 100 µM
TGI (NCI-H460 lung): > 100 µM
TGI (HOP-18 NSCLC): > 100 µM
TGI (SK-OV-3 ovarian): > 100 µM
TGI (HT29 colon): > 100 µM
TGI (DLD-1 colon): > 100 µM
TGI (HCT-15 colon): > 100 µM
TGI (ACHN renal): > 100 µM
TGI (UACC-257 melanoma): > 100 µM
TGI (U251 CNS): > 100 µM
TGI (CAKI-1 renal): > 100 µM
TGI (MOLT-4 leukemia): > 100 µM
TGI (SNB-78 CNS): > 100 µM
TGI (HCC-2998 colon): > 100 µM
TGI (786-0 renal): > 100 µM
TGI (OVCAR-3 ovarian): > 100 µM
TGI (SK-MEL-5 melanoma): > 100 µM
TGI (LOX IMVI melanoma): > 100 µM
TGI (UO-31 renal): > 100 µM
TGI (SNB-19 CNS): > 100 µM
TGI (CCRF-CEM leukemia): > 100 µM
TGI (SK-MEL-28 melanoma): > 100 µM
TGI (KM12 colon): > 100 µM
TGI (RXF 393 renal): > 100 µM
TGI (NCI-H23 lung): > 100 µM
TGI (OVCAR-8 ovarian): > 100 µM
TGI (M14 melanoma): > 100 µM
TGI (SR leukemia): > 100 µM
TGI (SF-539 CNS): > 100 µM
TGI (HL-60(TB) leukemia): > 100 µM
TGI (XF 498 CNS): > 100 µM
TGI (K-562 leukemia): > 100 µM
TGI (DMS 273 small cell lung): > 100 µM
TGI (TK-10 renal): > 100 µM
TGI (RXF-631 renal): > 100 µM
TGI (LXFL 529 NSCLC): > 100 µM
TGI (SNB-75 CNS): > 100 µM
TGI (SW-620 colon): > 100 µM
TGI (SN12C renal): > 100 µM
TGI (EKVX NSCLC): > 100 µM
TGI (SF-268 CNS): > 100 µM
TGI (A549 NSCLC): > 100 µM
TGI (COLO 205 colon): > 100 µM
TGI (NCI-H522 lung): > 100 µM
TGI (HCT-116 colon): > 100 µM
TGI (M19-MEL melanoma): > 100 µM
TGI (OVCAR-4 ovarian): > 100 µM
TGI (SF-295 CNS): > 100 µM
TGI (UACC-62 melanoma): > 100 µM
TGI (KM20L2 colon): > 100 µM
TGI (IGROV1 ovarian): > 100 µM
TGI (HOP-62 NSCLC): > 100 µM
TGI (RPMI-8226 leukemia): > 100 µM
TGI (OVCAR-5 ovarian): > 100 µM
TGI (A498 renal): > 100 µM
TGI (SK-MEL-2 melanoma): > 100 µM
TGI (DMS 114 small cell lung): > 100 µM
TGI (MALME-3M melanoma): > 100 µM

O=C1C(=O)N(C2C3CC4CC(C3)CC2C4)C(=O)C(=O)C1c1nc2ccccc2o1 (stereo not given)
TGI (HOP-92 NSCLC): > 100 µM
TGI (NCI-H460 lung): > 100 µM
TGI (HOP-18 NSCLC): > 100 µM
TGI (SK-OV-3 ovarian): > 100 µM
TGI (HT29 colon): 49.9 µM
TGI (DLD-1 colon): 92.9 µM
TGI (HCT-15 colon): > 100 µM
TGI (ACHN renal): > 100 µM
TGI (UACC-257 melanoma): > 100 µM
TGI (U251 CNS): > 100 µM
TGI (CAKI-1 renal): > 100 µM
TGI (SNB-78 CNS): > 100 µM
TGI (HCC-2998 colon): > 100 µM
TGI (786-0 renal): > 100 µM
TGI (OVCAR-3 ovarian): 54 µM
TGI (LOX IMVI melanoma): > 100 µM
TGI (UO-31 renal): > 100 µM
TGI (SNB-19 CNS): > 100 µM
TGI (SK-MEL-28 melanoma): > 100 µM
TGI (KM12 colon): > 100 µM
TGI (RXF 393 renal): > 100 µM
TGI (NCI-H23 lung): > 100 µM
TGI (OVCAR-8 ovarian): > 100 µM
TGI (M14 melanoma): > 100 µM
TGI (SF-539 CNS): > 100 µM
TGI (XF 498 CNS): > 100 µM
TGI (K-562 leukemia): 77.4 µM
TGI (DMS 273 small cell lung): > 100 µM
TGI (TK-10 renal): > 100 µM
TGI (RXF-631 renal): > 100 µM
TGI (LXFL 529 NSCLC): > 100 µM
TGI (SNB-75 CNS): > 100 µM
TGI (SW-620 colon): > 100 µM
TGI (SN12C renal): > 100 µM
TGI (EKVX NSCLC): > 100 µM
TGI (SF-268 CNS): > 100 µM
TGI (A549 NSCLC): > 100 µM
TGI (NCI-H226 lung): > 100 µM
TGI (COLO 205 colon): > 100 µM
TGI (HCT-116 colon): > 100 µM
TGI (M19-MEL melanoma): > 100 µM
TGI (OVCAR-4 ovarian): > 100 µM
TGI (SF-295 CNS): > 100 µM
TGI (UACC-62 melanoma): > 100 µM
TGI (KM20L2 colon): > 100 µM
TGI (IGROV1 ovarian): > 100 µM
TGI (HOP-62 NSCLC): > 100 µM
TGI (RPMI-8226 leukemia): > 100 µM
TGI (OVCAR-5 ovarian): > 100 µM
TGI (SK-MEL-2 melanoma): > 100 µM
TGI (DMS 114 small cell lung): 44.7 µM
TGI (MALME-3M melanoma): > 100 µM
